Experimental data as given in patent US7884067B2, “Peptides derived from cadherin and methods of use thereof” (Mount Sinai School of Medicine of New York University, priority 2001, dated 2011).

Assays:
N-cadherin [1] = assay: N-cadherin processing in fibroblast cultures (Western blot, C32); assay type: cell-based, mouse; details: GM6001, FIG. 7B lanes 5 and 6
Description: Extracts from PS1+/+ or PS1−/− mouse embryos were probed on WBs with either anti-cytoplasmic N-cadherin antibody (FIG. 7A, upper panel) or anti-PS I/CTF antibody 33B10 (FIG. 7A, lower panel). Extracts from PS1+/+ or PS1−/− fibroblast cultures were incubated for 16 hours in the absence or presence of DMSO, L-685,458 (0.5 μM) and probed on WBs with either C32 or 33B10 antibodies.

E-cadherin [2] = assay: E-cadherin cleavage in staurosporine-treated (apoptotic) A431 cells (Western blot); assay type: cell-based, human
Description: Cell Cultures and transfections. Cells were grown in Dulbecco's Modified Eagle Medium (DMEM) plus 10% fetal bovine serum, penicillin and streptomycin in 5% CO2 at 37° C. […] A431 cells were from American Type Culture Collection. […] A431D cells stably transfected with wild-type or GGG759-761AAA mutant E-cadherin were provided by Dr. A. B. Reynolds.
(§1) Immunoprecipitations (IPs), immunoblotting, immunofluorescence and confocal microscopy. For WB analysis of cell extracts, cells were washed with PBS and then solubilized in RIPA buffer. For IPs cells were solubilized in Hepes buffer (25 mM Hepes [pH 7.4], 150 mM NaCl, 1× Complete protease inhibitor cocktail, Roche) containing 1% digitonin (IPs with I-R222 and PI-R222 antibodies) or 1% Triton X-100 (IPs with β-catenin and desmoglein antibodies). Following centrifugation at 17,000×g for 10 min, supernatants (1 mg protein) were pre-cleared with protein A- or protein G-agarose (Pierce) for 2 hours. Supernatants were then incubated with antibodies overnight at 4° C. and treated for 2 hours with protein A-agarose (polyclonal antibodies) or with protein G-agarose (monoclonal antibodies). IPs were washed with Hepes buffer containing either 1% digitonin or 1% Triton X-100 and analyzed by SDS-PAGE. Immunofluorescence and confocal microscopy was performed as described by Georgakopoulos et al., (1999). Briefly, cells were plated on 22×22 mm collagen-coated glass coverslips, fixed in cold methanol for 10 min at −20° C. Following washing in TBS (25 mM Tris-HCl [pH 7.4], 150 mM NaCl), cells were treated with 10% goat serum in SuperBlock (Pierce) for 1 hour, incubated overnight with primary antibody (1:100), washed in TBS and then were incubated with species specific Alexa Fluor™ secondary antibody conjugates (Molecular Probes). Cells were washed with TBS, mounted with Prolong antifade kit (Molecular Probes), and photographed on a Leica confocal laser scanning microscope.
Conditional media (20 μl) from A431 cells cultured in the absence or presence of […] and treated with SDS as above were probed on Western blots with anti-E-cadherin ectodomain antibody H108.

N-cadherin [3] = assay: N-Cad/CTF2 production in rat primary neuronal cultures after stimulation; assay type: cell-based; set-up: N-Cad/CTF2 production on stimulation / K+-induced increase in N-Cad/CTF2 / L-glutamate-induced increase in N-Cad/CTF2: unit of the concentration uncertain; details: for N-Cad/CTF2 production on stimulation: 15 minutes stimulation with KCl (50 (unit uncertain)), L-Glutamate (50 (unit uncertain)) or NMDA (50 (unit uncertain))
Description: Primary, neuronal cultures. Mixed hippocampal and cortical neuronal cultures were prepared from E18 mouse or rat brains as described by Banker and Goslin (1991) Culturing Nerves Cells, London, MIT Press. Neurons were maintained 10 days in vitro in glial conditioned MEM containing 2% glucose and N2 supplements as described by Bottenstein and Sato (1979) Proc. Natl. Acad. Sci. USA 76: 514-517, and then were stimulated for 15 minutes with Mg2+-free Hanks' balanced salt solution (HBSS, Sigma) containing KCl (50 mM), L-Glutamate ([…]) or NMDA ([…]). D-APV ([…]) was applied 15 minutes before stimulation.
In vitro γ-secretase-like ε-cleavage assay. Cells were washed in PBS, resuspended in 1 ml of 4° C. hypotonic buffer (10 mM MOPS, pH 7.0, 10 mM KCl) and homogenized on ice. A post-nuclear supernatant was prepared by centrifugation at 1000×g for 15 minutes at 4° C. Crude membranes were isolated from the post-nuclear supernatant by centrifugation at 16,000×g for 40 minutes at 4° C. The membranes were then resuspended in […] of assay buffer (150 mM sodium citrate, pH 6.4, 1× Complete protease inhibitor cocktail), and incubated at 37° C. for 2 hours. Samples were either analyzed directly by WB or separated into pellet (P100) and supernatant (S100) fractions by ultracentrifugation for 1 hour at 100,000×g at 4° C. The S100 and P100 fractions were then analyzed by WB.
Rat brain neurons were pre-incubated in the absence (−) or presence (+) of D-APV and then stimulated with either KCl, L-glutamate (L-gly) or NMDA. Membranes from these neurons were used in in vitro assays for production of N-Cad/CTF2.

E-cadherin [4] = assay: Ionomycin treatment of A431D cells transfected with WT or GGG759-761AAA mutant E-cadherin; assay type: cell-based; details: ionomycin 45 minutes
Description: Cell Cultures and transfections. Cells were grown in Dulbecco's Modified Eagle Medium (DMEM) plus 10% fetal bovine serum, penicillin and streptomycin in 5% CO2 at 37° C. Fibroblast cell lines derived either from wild-type (WT) (PS1+/+) or PS1 knock-out (PS1−/−) mice were stably transfected with human E-cadherin as described by Baki et al., (2001). A431 cells were from American Type Culture Collection. Stable transfectants of PS1 cDNA in HEK293 cells were prepared as described by Georgakopoulos et al., (1999). A431D cells stably transfected with wild-type or GGG759-761AAA mutant E-cadherin were provided by Dr. A. B. Reynolds.
A431D cells stably transfected with WT E-cadherin or with the E-cadherin mutant were incubated in the absence or presence of ionomycin for 45 minutes and RIPA extracts were probed on Western blots with C36 antibody. Cytosolic fractions were probed with antibodies against E-cadherin (C36), β-catenin or α-catenin. […] Furthermore, no soluble E-Cad/CTF2 was detected in mutant transfectants either in the presence or absence of ionomycin. Thus, PS1 binding to E-cadherin is required for the PS1/γ-secretase cleavage of E-cadherin and for the release of E-Cad/CTF2, β-catenin and α-catenin to the soluble cytosol.

[5] = test system: E-cadherin/catenin cytoskeletal complex; assay: Ionomycin-induced CAJ disassembly in A431 cells, subcellular fractionation and Western blot; assay type: cell-based, human; details: ionomycin 10 μM, absence of inhibitor
Description: Subcellular fractionation. Confluent A431 cells (one 100 mm dish) were rinsed and scraped with 4° C. phosphate-buffered saline (PBS). Cells were then placed into 1 ml of buffer A (20 mM Tris-HCl [pH 7.5], 0.25 M sucrose, 10 mM EGTA, 2 mM EDTA, 1× Complete protease inhibitor cocktail, Roche), passed through a 27 gauge needle 10 times, and the obtained cell lysate was centrifuged at 500×g for 10 min at 4° C. The supernatant was then centrifuged at 120,000×g for 45 min at 4° C. to separate the cytosolic and crude membrane fractions. The pellet (crude membrane fraction) was washed twice with buffer A and resuspended by sonication in […] of buffer A containing 1% Triton X-100. The suspension was incubated at 4° C. for 30 min and then centrifuged at 120,000×g for 45 min at 4° C. to separate the membrane and Triton X-100-insoluble fractions. The pellet (Triton X-100-insoluble fraction) was washed twice with buffer A and solubilized by sonication in RIPA buffer. […] of proteins from the different fraction were analyzed by SDS-PAGE.
In stable cell-cell adhesion, the E-cadherin/β-catenin complex of the CAJ is anchored to the actin cytoskeleton via catenin and this association is manifested by the insolubility of the complex components in Triton X-100 (Baki et al., (2001)). Induction of apoptosis or calcium influx disrupts cadherin-mediated cell-cell adhesion by cleaving cadherin and disassembling the CAJ complexes. To determine whether the γ-secretase cleavage of E-cadherin is involved in the CAJ disassembly, calcium influx was induced with ionomycin (10 μM) in A431 cells preincubated for 30 minutes in the absence or presence of the γ-secretase inhibitor L-685,458. Cell extracts were fractionated, and analyzed on Western blots with antibodies against cytoplasmic E-cadherin C36 or β- and α-catenins. […] In addition, L-685,458 delayed the ionomycin-induced decrease of cytoskeletal β-catenin and α-catenin and inhibited their release to the soluble cytosol.

A431 cells = assay: Laser scanning confocal microscopy of ionomycin-induced cell-cell dissociation; assay type: cell-based, human; details: ionomycin 45 minutes
Description: as §1
The PS1/γ-secretase role in the disassembly of CAJ was further examined using laser scanning confocal microscopy (LSCM). A431 cells were pre-incubated for 30 minutes in the absence or presence of L-685,458 and then treated for 45 minutes with ionomycin. Following the ionomycin-induced cell-cell dissociation, the distribution of PS1, E-cadherin, β-catenin and α-catenin was analyzed by LSCM using the constant detector setting. […]

Aβ40 and Aβ42 = assay: Secreted Aβ ELISA in CHO cells expressing Swedish APP mutant; assay type: cell-based; details: transient transfection, vs vector cDNA, FIG. 4B
Description: CHO cells expressing Swedish APP mutant were transiently transfected with vector cDNA (vector), full length E-cadherin (E-cadherin), a cDNA construct encoding the transmembrane and ectodomain sequence of E-cadherin (EC0) or a cDNA expressing the entire cytoplasmic sequence of E-cadherin (CTF2). Secreted Aβ40 and Aβ42 were determined by ELISA. Each value is a mean±SD from three assays each performed in duplicate. […] Expression of transfected proteins in swCHO cells was monitored by Western blotting.

## CNC(=O)[C@H](Cc1c[nH]c2ccccc12)NC(=O)[C@@H](CC(=O)NO)CC(C)C [GM6001]
N-cadherin [1]
  N-Cad/CTF1: decreased
  full length N-cadherin: increased
E-cadherin [2]; 30 minutes preincubation with GM6001 (2.5 μM), then STS 6 hours
  production of the 38 kDa fragment (E-Cad/CTF1): inhibited
E-cadherin [2]; antibody H108
  secreted 95 kDa fragment (E-Cad/NTF1), effect of MMP inhibitor in STS-treated cells: inhibited

## [Cl-].[K+] [KCl]
N-cadherin [3]
  N-Cad/CTF2 production on stimulation: stimulated

## N[C@@H](CCC(=O)O)C(=O)O [L-glutamate, L-Glutamate]
N-cadherin [3]
  N-Cad/CTF2 production on stimulation: induced an increase in N-Cad/CTF2

## C[C@H](CCC(=O)O)C[C@H](C)C[C@H](C)C(=O)/C=C(\O)[C@H](C)C[C@H](C)C/C=C/[C@@H](C)[C@@H](O)[C@@H](C)[C@@H](O)C[C@@H]1CC[C@@](C)([C@H]2CC[C@@](C)([C@@H](C)O)O2)O1 [ionomycin]
E-cadherin [4]; cells expressing WT E-cadherin
  soluble E-Cad/CTF2, β-catenin and α-catenin in cytosolic fractions: significant increase
E-cadherin [4]; cells expressing mutant E-cadherin GGG759-761AAA
  soluble β- or α-catenin in cytosolic fractions: no ionomycin-induced increase
N-cadherin [3]; treatment of rat primary neuronal cultures with ionomycin
  N-Cad/CTF2: increased N-Cad/CTF2
[5]
  cytoskeletal (Triton X-100-insoluble) fraction of full-length E-cadherin and E-Cad/CTF1: time-dependent decrease
  cytoskeletal association (Triton X-100-insoluble fraction) of β-catenin and α-catenin: decreased
  soluble cytosolic E-Cad/CTF2: corresponding increase
  soluble cytosolic levels of β-catenin and α-catenin: significant increase
A431 cells
  cell-cell adhesion: disrupted cell-cell adhesion
  plasma membrane staining of PS1, E-cadherin, β-catenin and α-catenin epitopes: decreased plasma membrane staining of all epitopes

## CTF-2: cDNA expressing the entire cytoplasmic sequence of E-cadherin
Aβ40 and Aβ42
  secreted Aβ40: significantly inhibited
  secreted Aβ42: significantly inhibited

## D(−)-2-amino-5-phosphonovalerate [D-APV]
N-cadherin [3]; D-APV (100 (unit uncertain)) applied 15 minutes before stimulation with KCl
  K+-induced increase in N-Cad/CTF2: inhibited
N-cadherin [3]; D-APV (100 (unit uncertain)) applied 15 minutes before stimulation with L-glutamate
  L-glutamate-induced increase in N-Cad/CTF2: blocked

## Z-DEVD-FMK
E-cadherin [2]; 30 minutes preincubation with Z-DEVD-FMK (50 μM), then STS 6 hours
  29 kDa fragment (E-Cad/CTT3): inhibited
